According to patent US20050054559A1, “Compounds for sustained release of orally delivered drugs” (priority 2000, published 2005):
pEC50, pIC50: −log10 of the molar value.

Experiments:
LBAT [1] = biological target: T1, LBAT (Homo sapiens, UniProt Q14973); test: In vitro uptake by CHO cells transfected with LBAT, evaluated by LC-MS/MS; format: cell-based; conditions: 0.06 to 1000 μM, 10 min
T1 construct: expressed in transfected cells; host or cells: CHO cells
Method: Active transport of (4) by the bile acid transport system was evaluated in vitro by incubation of (4) or glycocholate (control substrate) with untransfected CHO K1 cells or CHO cells transfected with either IBAT or LBAT. Cells (10^5 cells/mL) were incubated in 96 well plates with varying concentrations (0.06 to 1000 μM) of (4) or glycocholate for 10 min. Cells were then washed with Hank's Balanced Salt Solution (HBSS) and lysed and extracted by addition of 100 μL of water followed by sonication. Concentrations of (4) or glycocholate in cell extracts were determined by direct injection onto an API 2000 LC/MS/MS equipped with an Agilent 1100 binary pump and autosampler. Separation was achieved using a Keystone BDS Hypersil 2×50 mm column heated to 45° C. during the analysis. The mobile phases were: 0.1% formic acid in water (A) and 0.1% formic acid in acetonitrile (B). The gradient condition was: 5% B for 1 min, increasing to 90% B in 0.2 min, maintained for 2.8 min and returning to 5% B for 2 min. A TurboIonSpray source was used on the API 2000. The analysis was performed in the positive ion mode and MRM transitions of 466/412 and 562/154 were used in the analysis of glycocholate and (4), respectively. Ten microliters of the cell extracts were injected. Peaks were integrated using Analyst quantitation software. […]

[2] = Secretion in bile following oral administration to bile duct-cannulated rats; format: in vivo, rat; conditions: single oral dose of (4) 85.25 mg/kg
Method: Sustained release of gabapentin from a prodrug that is subject to enterohepatic recirculation requires that a proportion of the intact prodrug be absorbed after oral administration and subsequently secreted into the bile intact. The potential for enterohepatic recirculation of intact (4) was examined in rats with indwelling bile duct fistulae. […] Bile was collected continuously in aliquots over 24 hours. Plasma and bile samples were frozen at −80° C. until analyzed. Concentrations of (4) or gabapentin in plasma samples were deermined by LC/MS/MS as described in Example 38. Concentrations of intact […] in bile were similarly deermined by LC/MS/MS. Bile (20 μL) was diluted 1:1000 with methanol and injected directly onto the HPLC system. Concentrations of (4) in bile reached a maximum at ˜6 hours post-dosing and were sustained up to 24 hours.

Cholylglycine Hydrolase = Cholylglycine Hydrolase (Clostridium perfringens, UniProt P54965); conditions: compared with plasma, liver or intestine
IBAT = IBAT (Homo sapiens, UniProt Q12908); test: Electrogenic transport in Xenopus oocytes expressing IBAT; format: cell-based
Description: (§1) RNA preparation: Human IBAT and LBAT Transporter cDNAs were subcloned into a modified pGEM plasmid that contains 5′ and 3′ untranslated sequences from the Xenopus β-actin gene. These sequences increase RNA stability and protein expression. Plasmid cDNA was linearized and used as template for in vitro transcription (Epicentre Technologies transcription kit, 4:1 methylated:non-methylated GTP).
(§2) Xenopus oocyte isolation. Xenopus laevis frogs were anesthetized by immersion in Tricaine ([…] in deionized water) for 15 min. Oocytes were removed and digested in frog ringer solution (90 mM NaCl, 2 mM KCl, 1 mM MgCl2, 10 mM NaHEPES, pH 7.45, no CaCl2) with 1 mg/mL collagenase (Worthington Type 3) for 80-100 min with shaking. The oocytes were washed 6 times, and the buffer changed to frog ringer solution containing CaCl2 (1.8 mM). Remaining follicle cells were removed if necessary. Cells were incubated at 16° C., and each oocyte injected with […] RNA in […] solution.
(§3) Electrophysiology measurements. Transport currents were measured 2-14 days after injection, using a standard two-electrode electrophysiology set-up (Geneclamp 500 amplifier, Digidata 1320/PCLAMP software and ADInstruments hardware and software were used for signal acquisition). Electrodes ([…]) were microfabricated using a Sutter Instrument puller and filled with 3M KCl. The bath was directly grounded (transporter currents were less than 0.3 μA). Bath flow was controlled by an automated perfusion system (ALA Scientific Instruments, solenoid valves).
For transporter pharmacology, oocytes were clamped at −60 to −90 mV, and continuous current measurements acquired using PowerLab Software and an ADInstruments digitizer. Current signals were lowpass filtered at 20 Hz and acquired at 4-8 Hz. All bath and drug-containing solutions were frog ringers solution containing CaCl2. Drugs were applied for 10-30 seconds until the induced current reached a new steady-state level, followed by a control solution until baseline currents returned to levels that preceded drug application. The difference current (baseline subtracted from peak current during drug application) reflected the net movement of charge resulting from electrogenic transport and was directly proportional to tranport rate. Recordings were made from a single oocyte for up to 60 min, enabling 30-40 separate compounds to be tested per oocyte. […]. Using this normalization procedure Vmax (i.e. maximal induced current) for different compounds tested on different oocytes could be compared.

LBAT [3] = biological target: T2, LBAT (Homo sapiens, UniProt Q14973); test: Electrogenic transport in Xenopus oocytes expressing LBAT; format: cell-based
T2 sequence (Q14973 1-349): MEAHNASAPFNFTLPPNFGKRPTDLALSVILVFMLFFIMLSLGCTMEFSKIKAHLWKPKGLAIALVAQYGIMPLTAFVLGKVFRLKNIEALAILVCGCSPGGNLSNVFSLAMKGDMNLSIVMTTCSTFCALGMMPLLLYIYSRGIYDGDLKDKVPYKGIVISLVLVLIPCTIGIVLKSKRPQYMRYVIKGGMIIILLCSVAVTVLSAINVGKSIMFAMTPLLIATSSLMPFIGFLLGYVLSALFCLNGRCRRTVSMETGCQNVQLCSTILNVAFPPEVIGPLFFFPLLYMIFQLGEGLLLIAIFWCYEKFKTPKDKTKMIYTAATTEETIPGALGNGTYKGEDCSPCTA
Description: as §1, §2
as §3, with “The bath was directly grounded (transporter currents were less than 0.3 μA). Bath flow was controlled by an automated perfusion system (ALA Scientific Instruments, solenoid valves).” left out

LBAT [4] = biological target: T1, LBAT; test: Inhibition of radiolabeled taurocholate uptake in LBAT-transfected CHO cells; format: cell-based; conditions: radiolabeled competition assay in transporter-expressing CHO cells
Method: CHO cells transfected with either the IBAT or LBAT transporter were seeded into 96-well microtiter plates at 100,000 cells/well in 100 μL DMEM containing 10% serum, glutamine and Penstrep. After overnight incubation the media was removed and test compound (25 μL) added at 2× the final desired concentration. Tritiated taurocholate (50,000 CPM/well) was diluted with cold substrate to a final concentration of 5 μM and 25 μL/well of this mixture was added to the plate. After incubating for 1 h at room temperature the solution was removed and the plate washed 4× with PBS at 4° C. 200 μL/well of scintillant is added and the plate then read in a Wallac microbeta counter. The inhibition data is processed by standard methods to calculate an inhibition constant Ki for the test compound.

IBAT, sequence (Q12908 whole entry): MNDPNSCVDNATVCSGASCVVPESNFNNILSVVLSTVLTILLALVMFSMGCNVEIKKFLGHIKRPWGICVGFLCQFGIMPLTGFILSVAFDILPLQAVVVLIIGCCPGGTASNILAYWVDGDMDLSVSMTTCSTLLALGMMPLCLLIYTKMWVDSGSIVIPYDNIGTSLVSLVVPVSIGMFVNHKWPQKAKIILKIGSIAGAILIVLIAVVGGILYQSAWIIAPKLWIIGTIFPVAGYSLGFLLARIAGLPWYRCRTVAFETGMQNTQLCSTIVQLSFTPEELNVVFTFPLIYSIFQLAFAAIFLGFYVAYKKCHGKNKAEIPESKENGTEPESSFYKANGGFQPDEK
Cholylglycine Hydrolase, sequence (P54965 whole entry, looked up): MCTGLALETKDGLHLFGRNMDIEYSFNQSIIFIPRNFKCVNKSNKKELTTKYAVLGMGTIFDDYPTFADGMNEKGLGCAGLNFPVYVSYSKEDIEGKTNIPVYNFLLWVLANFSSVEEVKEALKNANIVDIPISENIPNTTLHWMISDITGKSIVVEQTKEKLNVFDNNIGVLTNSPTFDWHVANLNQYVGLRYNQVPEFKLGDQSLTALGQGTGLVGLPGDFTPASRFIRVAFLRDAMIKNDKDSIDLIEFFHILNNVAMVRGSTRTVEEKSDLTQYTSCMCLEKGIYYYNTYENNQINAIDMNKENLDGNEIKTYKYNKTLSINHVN

For CC(CCC(=O)NCC1(CC(=O)O)CCCCC1)C1CCC2C3C(O)CC4CC(O)CCC4(C)C3CC(O)C12C (stereo not shown) [Compound (4)], the “Active uptake by bile acid transport system” value (LBAT [1]) was “Active uptake”, the “concentrations of (4) in bile sustained up to” value ([2]; bile duct-cannulated rats) was “up to 24 hours” and the “time of maximum concentration of (4) in bile” value ([2]; bile duct-cannulated rats, post-dosing) was about 6 h. The “gabapentin in plasma of bile duct-cannulated rats” value [2] was “no gabapentin was detected”, the “release of gabapentin catalyzed by cholylglycine hydrolase (in words)” value (Cholylglycine Hydrolase) was “Substantially faster release” and the pEC50 (IBAT) was 4.15. The “% Max. (GDC)” value (IBAT; relative to glycodeoxycholate) was 67%, the pEC50 (LBAT [3]) was 4.72 and the “% Max. (GDC)” value (LBAT [3]; relative to glycodeoxycholate) was 38%. It also gave a pIC50 (LBAT [4]) of 5.10.
